The values below come from patent US8309560B2, “Methods and compositions for ameliorating the undesirable effects of chemotherapy” (Sound Pharmaceuticals Incorporated, priority 2001, dated 2012).

The test system of experiment [1] is hearing in rats. Kind of experiment: Auditory Evoked Brainstem Response (ABR), permanent threshold shift after cisplatin. It is filed as in vivo, rat. The note with it: cisplatin 16 mg/kg plus Ebselen 16 mg/kg i.p., compared to cisplatin without Ebselen, 72 hours (FIG. 8). The protocol: (§1) Auditory Evoked Brainstem Response (ABR) was used to assess hearing in rats before and after exposure to cisplatin and chemoprotectants. Ebselen or DMSO (control vehicle) were introduced intraperitoneally into rats one hour before intraperitoneal administration of cisplatin at a dosage of 16 mg/kg body weight. Seventy two hours after delivery of cisplatin, ABR data were collected, animals were sacrificed, cochleae were collected, dissected, stained with FITC-phalloidin (to detect F-Actin in hair cells), and DAPI (to detect nuclear DNA).

Experiment [2] relates to cochlear outer hair cells. The experiment in a line: Count of outer auditory hair cells in excised cochleae after cisplatin. It is filed as in vivo, rat. The note with it: rats, cisplatin plus Ebselen compared to cisplatin without Ebselen (FIG. 10A, 10B). The protocol:
as §1
Additionally, cochleae were excised from rats treated with the combination of cisplatin and Ebselen as described in this Example. Cochleae were also excised from rats treated with cisplatin and saline and DMSO (control). The number of outer auditory hair cells in the excised cochlea were counted at intervals of 0.1 mm along the cochlea. Representative results from a control rat and a treated rat are shown in FIG. 10A and FIG. 10B, respectively.

Experiment [3] relates to inner ear hair cells. The experiment in a line: Cochlea explant culture, inner ear hair cell count after cisplatin. It is filed as cell-based, mouse. Particulars: 43 μM cisplatin plus 47 μM Ebselen, 24 hours (FIG. 7). The protocol: Three cochlea per treatment, obtained from P3-4 mouse pups, were cultured in 0.4 micrometer MilliCell-CM inserts with NeuroBasal A medium plus B27 supplement. After 24 hours in culture Ebselen was added to the medium, incubated for ten minutes, and then cisplatin was added to the medium at a final concentration of 43 μM. A first control treatment included 43 μM cisplatin. A second control treatment included 47 μM Ebselen without the addition of cisplatin. All cultures were incubated for 24 hours at 37° C. in 5% carbon dioxide.
The explants were then harvested, fixed, and stained with calbindin (which detects hair cells) and DAPI (4′,6-Diamindino-2-phenylindole; for detection of nuclear DNA).

Experiment [4] relates to NuTu-19 ovarian cancer cells. The experiment in a line: MTS cell viability assay of cultured NuTu-19 cells. It is filed as cell-based. Particulars: for inhibition of the ability of cisplatin to kill NuTu-19 ovarian cancer tumor cells in culture: single chemoprotectant plus cisplatin 43 μM (FIG. 2-4). The protocol:
NuTu-19 cells were plated at a density of 3,000 cells per well in 96 well culture dishes, and incubated at 37° C., in the presence of 5% carbon dioxide, for 24 hours. N-acetylcysteine, Ebselen or allopurinol were incubated for one hour, or for four hours, with the NuTu-19 cells, then cisplatin was added to the cultures which were further incubated at 37° C., in the presence of 5% carbon dioxide, for 24 hours. The NuTu-19 cells were then rinsed with media and incubated in […] cisplatin for an additional 24 hours.
The NuTu-19 cells were then rinsed twice with phosphate buffered saline (PBS), then MTS assays were performed to measure the number of living cells. MTS is an abbreviation for (3-(4,5-dimethylthiazol-2-yl)-5-(3-carboxymethoxyphenyl)-2-(4-sulfophenyl)-2H-tetrazolium. The MTS assay is a colorimetric method for determining the number of viable cells based upon physiologic catabolism of MTS to a formazan product that is soluble in tissue culture medium. The absorbance of the formazan product at 490 nm can be measured directly from a 96 well plate using a plate reader. Increased absorbance at 490 nm correlates with increased production of formazan in a well. This is typically due to more viable cells present in a well.
A general note: Tetrazolium dyes change colour on reduction, which living cells bring about.

For `O=c1c2ccccc2[se]n1-c1ccccc1` [Ebselen, 2-phenyl-1,2-benzoisoselenazol-3(2H)-one], the “permanent threshold shift (PTS) in hearing at 8, 16, 24 and 32 kHz” value in experiment [1] was “less”. Further, the “percentage of outer hair cells missing in cochleae” value in experiment [2] is recorded as “less”. Also, the “number of inner ear hair cells (protection from damage by cisplatin in vitro)” value in experiment [3] is on record as “protects”. For the same compound, the “inhibition of the ability of cisplatin to kill NuTu-19 ovarian cancer tumor cells in culture” value (“inhibition of the ability of cisplatin” below) in experiment [4] is “does not inhibit”. As to `CC(=O)N[C@@H](CS)C(=O)O` [N-acetylcysteine, N-acetyl-L-Cysteine], the “inhibition of the ability of cisplatin” value in experiment [4] is “does not inhibit”.

`Oc1ncnc2[nH]ncc12` [allopurinol, 4-hydroxypyrazolo[3,4-d]pyrimidine]: the “inhibition of the ability of cisplatin” value in experiment [4] was “does not inhibit”. Turning to `N.N.[Cl][Pt][Cl]` [cisplatin, cis-diamminedichloroplatinum], the “percentage of live, cultured NuTu-19 ovarian cancer cells” value in experiment [4] (incubation for 24 hours in the presence of cisplatin (FIG. 1)) is “killed”.
